Measured values: US8980222B2, “Diagnostic use of endothelin ETB receptor agonists and ETA receptor antagonists in tumor imaging” (The Board of Trustees of the University of Illinois, priority 2004, dated 2015)
Where two headings read alike, the source gives them in different places. Non-standard residues stand in square brackets, D forms with d. Residues, ends and D or L forms follow the SMILES beside them.

Key:
tumor [1] = assay: Tumor blood flow with ETA receptor antagonists; conditions: in vivo
Method: A study using BMS182874, an ETA receptor antagonist, also was conducted.

tumor [2] = conditions: Sonveaux et al. 2004; cited from earlier work
breast tumor = assay: Breast tumor blood perfusion by Laser Doppler Flowmetry in MNU-induced mammary tumor rats; type: in vivo, rat; conditions: for Maximal increase in tumor perfusion (%): Laser Doppler Flowmetry, breast tumor-bearing rats
Method: MNU or saline treatments were carried out as intraperitoneal injections three months prior to the study. Rats were regularly palpated from four weeks after onset of the treatments. When the tumors reached an optimal size (i.e., 4-8 mm in diameter), the experiments were begun. Systemic hemodynamic and regional circulation parameters were determined at baseline, 30, 60, and 120 minutes after initiating ET-1 (50 ng/kg/min) infusion.
Blood perfusion to the mammary gland of the rats was measured using laser Doppler flowmetry as described in literature procedures (23, 24). The animals were shaved around the nipples. The skin surrounding the mammary glands was dissected out as a lambeau about 6 cm wide and 4 cm long. A standard model fiber optic probe was applied to the surface of the lambeau, and secured to the tissue by double stick tape. The lambeau was placed in a metal holder and taped down to prevent movement, then connected to a Periflux PF2b 4000 Laser Doppler Flowmetry (Perimed KB, Stockholm, Sweden). The time constant was set at 1.5 seconds and the bandwidth was set at 4 KHz.
A preclinical model of MNU-induced primary autochthonous mammary tumor was used in the following studies. This tumor model of breast cancer offers several advantages over other models (Rai et al., Cancer Chemother. Parmaacol., 51(1):21-8 (2003)). Virgin female Sprague Dawley rats were used for the study. At 48 days of age, rats received a single injection of N-methyl nitrosourea (MNU; 50 mg/kg, i.v.). Eighty percent of the animals developed tumors two months after MNU injection and 10% of total rats may die or loose weight due to MNU injection or develop a tumor after several months. Tumor appearance and location is monitored by manual mammary gland palpation and the tumor diameter is measured with a digital caliper. Rats with a tumor volume of 200-500 mm^3 were selected for the experiments.
FIG. 2 illustrates the effect of IRL-1620 on breast tumor perfusion (N=5/group). Breast tumor-bearing rats were anesthetized and mammary tumor perfusion was recorded using a Laser Doppler Flowmetry for three hours. A 15-minute stable baseline recording was obtained before the administration of saline or IRL-1620 1, 3, or 9 nmol/kg via the tail vein in a final volume of 0.2 ml. Tumor perfusion was recorded for three hours (*p<0.001 compared to vehicle-treated rats).
Animals received BQ 788 ([…]) or saline via tail vein 15 minutes before the administration of IRL-1620 (3 nmol/kg) and tumor perfusion was recorded for three hours (*p<0.001 compared to BQ 788-administered rats). Studies also were conducted to determine the effect of IRL-1620 on blood perfusion in normal mammary tissue.

ETA and ETB receptors = conditions: cited from earlier work

Compound | Selectivity for ETB receptors than ETA receptors (ETA and ETB receptors) | Maximal increase in tumor perfusion (%) (breast tumor) | other results
Cc1noc(NS(=O)(=O)c2cccc3c(N(C)C)cccc23)c1C [BMS182874] |  |  | Tumor blood flow (tumor [1]): increased the tumor blood flow
CC(C)C[C@@H]1NC(=O)[C@@H](C(C)C)NC(=O)[C@@H]2CCCN2C(=O)[C@@H](CC(=O)O)NC(=O)[C@@H](Cc2c[nH]c3ccccc23)NC1=O [BQ123] (cyclo(L[dW][dD]P[dV])) |  |  | Tumor blood flow (tumor [2]): significantly improved
CCCC[C@@H](NC(=O)[C@@H](Cc1cn(C(=O)OC)c2ccccc12)NC(=O)[C@H](CC(C)(C)C)NC(=O)N1[C@H](C)CCC[C@@H]1C)C(=O)O [BQ788, N-cis-2,6-dimethylpiperidinocarbonyl-L-gamma-methylleucyl-D-1-methoxycarbonyltrptophanyl-D-Nle] |  |  | Effect of antagonist on IRL-1620 induced tumor blood perfusion (breast tumor; BQ 788 0.5 μg/kg 15 minutes before IRL-1620 3 nmol/kg): completely blocked; Effect of antagonist on ET-1 induced increase in tumor blood flow (breast tumor; ET-1 induced): completely blocked
CC[C@H](C)[C@H](NC(=O)[C@H](CC(=O)O)NC(=O)[C@H](CC(C)C)NC(=O)[C@H](Cc1c[nH]cn1)NC(=O)[C@@H]1CSSC[C@H](N)C(=O)N[C@@H](CO)C(=O)N[C@H]2CSSC[C@H](NC(=O)[C@H](CCC(=O)O)NC(=O)[C@H](CCCCN)NC(=O)[C@H](CC(=O)O)NC(=O)[C@H](CCSC)NC(=O)[C@H](CC(C)C)NC(=O)[C@H](CO)NC(=O)[C@H](CO)NC2=O)C(=O)N[C@@H](C(C)C)C(=O)N[C@@H](Cc2ccc(O)cc2)C(=O)N[C@@H](Cc2ccccc2)C(=O)N1)C(=O)N[C@H](C(=O)N[C@@H](Cc1c[nH]c2ccccc12)C(=O)O)[C@@H](C)CC [ET-1, Endothelin-1] | equal affinity | 46.19% | Breast tumor perfusion after exogenous infusion (breast tumor; rat, in vivo): transient increase; Perfusion to major organs (breast tumor; rat, in vivo): without altering perfusion
ET-3: ET agonist three times more selective for ETB receptors than ETA receptors | three times more selective | 47.99% | 
[Ala^1, 3, 11, 15]-ET-1 (ASASSLMDKEAVYFAHLDIIW; Endothelin-1; UniProt P05305 53-73, looked up, variant C1A C3A C11A C15A) [4 Ala ET-1] | 1700 times | 53.96% | 
